Calls of active or inactive are those of the source. The calls are words filed in the database; no cut-off is given here.
Assays:
[1] = tested on: A549; test: Antiproliferative activity against human A549 cells harboring KRAS mutant assessed as reduction in cell viability; assay type: functional, cell-based
[2] = tested on: A549; test: Synergistic antiproliferative activity against human A549 cells harboring KRAS mutant assessed as reduction in cell viability in presence of 100 nM cobi-metinib; assay type: functional, cell-based
[3] = tested on: A-375; test: Antiproliferative activity against human A375 cells harboring BRAF mutant assessed as reduction in cell viability; assay type: functional, cell-based
[4] = biological target: Serine/threonine-protein kinase B-raf (Homo sapiens, UniProt P15056); test: Inhibition of BRAF (unknown origin) (416 to 766) assessed as using inactive phosphorylated MAP2K1 substrate preincubated for 30 mins measured after 90 mins by DELFIA assay
[5] = Apparent permeability across apical to basolateral side in MDCK cells; assay type: ADME, cell-based, Canis lupus familiaris; conditions: dog
[6] = biological target: RAF proto-oncogene serine/threonine-protein kinase (Homo sapiens, UniProt P04049, Y340D/Y341D); test: Inhibition of CRAF Y340D/Y341D mutant (unknown origin) assessed as using inactive phosphorylated MAP2K1 substrate preincubated for 30 mins measured after 90 mins by DELFIA assay
[7] = Efflux ratio of permeability across basolateral to apical side over apical to basolateral side in MDCK cells; assay type: ADME, cell-based, Canis lupus familiaris; conditions: dog
[8] = Oral bioavailability in mouse at 5 mg/kg; assay type: ADME, organism-based; conditions: in vivo
[9] = Half life in mouse; assay type: ADME, organism-based; conditions: in vivo
[10] = Clearance in mouse at 1 mg/kg, iv; assay type: ADME, organism-based; conditions: in vivo
[11] = Volume of distribution in mouse at 1 mg/kg, iv; assay type: ADME, organism-based; conditions: in vivo
[12] = tested on: Mus musculus; test: In vivo inhibition of RAF in human HCT116 cells xenografted in NCR mouse assessed as inhibition of DUSP6 gene expression at 5 mg/kg, po qd for 4 days measured upto 24 hrs of last dose; assay type: functional, organism-based; conditions: time 4.0 day
[13] = tested on: Mus musculus; test: In vivo inhibition of RAF in human HCT116 cells xenografted in NCR mouse assessed as inhibition of SPRY4 gene expression at 5 mg/kg, po qd for 4 days measured upto 24 hrs of last dose; assay type: functional, organism-based; conditions: time 4.0 day
[14] = tested on: Mus musculus; test: In vivo inhibition of RAF in human HCT116 cells xenografted in NCR mouse assessed as inhibition of DUSP6 gene expression at 15 mg/kg, po qd for 4 days measured upto 24 hrs of last dose; assay type: functional, organism-based; conditions: time 4.0 day
[15] = tested on: Mus musculus; test: In vivo inhibition of RAF in human HCT116 cells xenografted in NCR mouse assessed as inhibition of DUSP6 gene expression in presence of Cobi-metinib at 15 mg/kg, po qd for 4 days measured at 24 hrs of last dose; assay type: functional, organism-based; conditions: time 4.0 day
[16] = tested on: Mus musculus; test: In vivo inhibition of RAF in human HCT116 cells xenografted in NCR mouse assessed as inhibition of SPRY4 gene expression in presence of Cobi-metinib at 15 mg/kg, po qd for 4 days measured at 24 hrs of last dose; assay type: functional, organism-based; conditions: time 4.0 day
[17] = tested on: Mus musculus; test: In vivo inhibition of RAF in human HCT116 cells xenografted in NCR mouse assessed as inhibition of SPRY4 gene expression in presence of Cobi-metinib at 15 mg/kg, po qd for 4 days measured upto 8 hrs of last dose; assay type: functional, organism-based; conditions: time 4.0 day
[18] = tested on: Mus musculus; test: In vivo inhibition of RAF in human HCT116 cells xenografted in NCR mouse assessed as inhibition of pRSK gene expression in presence of Cobi-metinib at 15 mg/kg, po qd for 4 days measured at 24 hrs of last dose; assay type: functional, organism-based; conditions: time 4.0 day
[19] = tested on: Mus musculus; test: In vivo inhibition of RAF in human HCT116 cells xenografted in NCR mouse assessed as inhibition of DUSP6 gene expression in presence of Cobi-metinib at 15 mg/kg, po qd for 4 days measured upto 8 hrs of last dose; assay type: functional, organism-based; conditions: time 4.0 day
[20] = tested on: Mus musculus; test: In vivo inhibition of RAF in human HCT116 cells xenografted in NCR mouse assessed as inhibition of SPRY4 gene expression at 15 mg/kg, po qd for 4 days measured upto 24 hrs of last dose; assay type: functional, organism-based; conditions: time 4.0 day
[21] = tested on: Mus musculus; test: In vivo inhibition of RAF in human HCT116 cells xenografted in NCR mouse assessed as inhibition of pRSK gene expression in presence of Cobi-metinib at 15 mg/kg, po qd for 4 days measured upto 8 hrs of last dose; assay type: functional, organism-based; conditions: time 4.0 day

RAF proto-oncogene serine/threonine-protein kinase, sequence (P04049 whole entry Y340D/Y341D): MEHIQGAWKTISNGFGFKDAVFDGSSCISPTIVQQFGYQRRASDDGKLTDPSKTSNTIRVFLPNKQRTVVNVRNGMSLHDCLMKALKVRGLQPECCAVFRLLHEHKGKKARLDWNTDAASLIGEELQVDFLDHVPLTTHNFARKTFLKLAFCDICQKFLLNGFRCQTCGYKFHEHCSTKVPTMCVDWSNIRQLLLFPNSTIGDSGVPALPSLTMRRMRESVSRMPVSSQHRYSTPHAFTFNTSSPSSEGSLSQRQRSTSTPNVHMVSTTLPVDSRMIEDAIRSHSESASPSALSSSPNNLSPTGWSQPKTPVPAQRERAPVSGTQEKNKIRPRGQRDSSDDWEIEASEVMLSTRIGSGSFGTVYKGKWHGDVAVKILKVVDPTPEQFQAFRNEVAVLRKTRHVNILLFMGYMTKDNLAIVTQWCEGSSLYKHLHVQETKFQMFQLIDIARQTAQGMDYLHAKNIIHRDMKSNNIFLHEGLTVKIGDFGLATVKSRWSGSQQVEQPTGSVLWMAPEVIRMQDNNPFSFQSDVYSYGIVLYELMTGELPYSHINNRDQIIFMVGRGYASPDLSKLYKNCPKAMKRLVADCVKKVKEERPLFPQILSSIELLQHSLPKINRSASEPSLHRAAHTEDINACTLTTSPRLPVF
Serine/threonine-protein kinase B-raf, sequence (P15056 whole entry): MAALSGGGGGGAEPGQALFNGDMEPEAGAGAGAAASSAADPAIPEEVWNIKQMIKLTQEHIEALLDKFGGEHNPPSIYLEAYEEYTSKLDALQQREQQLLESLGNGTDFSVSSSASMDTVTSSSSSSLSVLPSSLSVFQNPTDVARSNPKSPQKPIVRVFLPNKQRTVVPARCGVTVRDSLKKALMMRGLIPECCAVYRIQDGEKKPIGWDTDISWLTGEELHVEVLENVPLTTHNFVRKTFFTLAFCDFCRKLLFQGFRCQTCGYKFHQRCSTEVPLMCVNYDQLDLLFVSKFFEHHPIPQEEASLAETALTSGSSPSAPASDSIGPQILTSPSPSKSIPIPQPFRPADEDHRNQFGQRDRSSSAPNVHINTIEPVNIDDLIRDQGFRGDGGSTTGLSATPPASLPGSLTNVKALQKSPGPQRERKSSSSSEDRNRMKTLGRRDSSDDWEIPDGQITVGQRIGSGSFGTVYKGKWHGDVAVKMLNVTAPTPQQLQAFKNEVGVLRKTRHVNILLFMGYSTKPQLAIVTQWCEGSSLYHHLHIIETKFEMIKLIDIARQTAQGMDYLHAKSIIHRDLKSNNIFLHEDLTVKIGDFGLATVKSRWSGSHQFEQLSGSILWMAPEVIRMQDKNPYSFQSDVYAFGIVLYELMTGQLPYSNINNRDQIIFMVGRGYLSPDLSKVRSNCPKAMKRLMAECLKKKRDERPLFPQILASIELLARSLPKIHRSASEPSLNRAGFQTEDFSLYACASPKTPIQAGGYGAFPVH

SMILES | IC50 [1] [nM] | IC50 [2] [nM] | IC50 [3] [nM] | Ki [4] [nM] | Papp A→B [5] [nm/s] | Ki [6] [nM] | efflux ratio [7] | further results
CNc1ncc2cc(-c3cc(NC(=O)NCCC(C)(C)C)c(F)cc3C)c(C)nc2n1 [LY-3009120] | 545 | 45.6 | 28.3 | – | – | – | – | –
Cc1cc(F)c(NC(=O)NCCC(C)(C)C)cc1Nc1ccc2ncn(C)c(=O)c2c1F | 2900 | 2900 | – | < 0.08 | – | – | – | –
Cc1cc(F)c(NC(=O)NCCC(C)(C)C)cc1-c1ccc2cc(N)ncc2c1 | 668 | 148 | 224 | < 0.08 | – | < 0.05 | – | –
CNc1ncc2cc(-c3cc(NC(=O)NCCC(C)(C)C)c(F)cc3C)c(=O)n(C)c2n1 | 337 | 39.2 | 32.2 | 0.102 | – | 0.081 | – | –
O=C(c1ccc(F)c(F)c1Nc1ccc(I)cc1F)N1CC(O)([C@@H]2CCCCN2)C1 | – | – | – | – | – | – | – | inhibition [12]: Active; inhibition [13]: Active

Now from value to compound, other results behind:

IC50 [1] [nM] | IC50 [2] [nM] | IC50 [3] [nM] | Ki [4] [nM] | Papp A→B [5] [nm/s] | Ki [6] [nM] | efflux ratio [7] | SMILES | further results
1360 | 138 | – | < 0.08 | 78 | < 0.05 | 1 | Cc1cc(F)c(NC(=O)c2cccc(C(C)(C)C#N)c2)cc1-c1ccc2c(=O)n(C)ncc2c1 | –
7730 | 1120 | – | 0.12 | 81 | 0.06 | 0.74 | Cc1cc(F)c(C(=O)NCCCC(C)(C)C)cc1-c1ccc2c(=O)n(C)ncc2c1 | –
1590 | 187 | 210 | < 0.08 | 87 | < 0.05 | 0.5 | Cc1cc(F)c(NC(=O)NCCC(C)(C)C)cc1-c1ccc2c(=O)n(C)ncc2c1 | bioavailability [8]: 2%; half-life [9]: 1.3 h; clearance [10]: 1.32 L/h/kg; Vd [11]: 2.1 L/kg
5470 | 369 | – | 0.19 | 140 | 0.062 | 0.86 | Cc1cc(F)c(NC(=O)c2cccc(C(C)(C)C#N)c2)cc1-c1cnc2c(=O)n(C)ncc2c1 | inhibition [14]: Active; inhibition [15]: inactive; inhibition [16]: inactive; bioavailability [8]: 37%; inhibition [17]: Active; half-life [9]: 1.9 h; inhibition [18]: inactive; inhibition [19]: Active; clearance [10]: 1.02 L/h/kg; inhibition [20]: Active; Vd [11]: 1.7 L/kg; inhibition [21]: Active

From ChEMBL document CHEMBL4706748, “Targeting KRAS Mutant Cancers via Combination Treatment: Discovery of a Pyridopyridazinone pan-RAF Kinase Inhibitor” (ACS Med Chem Lett, 2021)
